± gives the standard deviation of the averaged measurements.
Test system: KHOS-NP
Test: relative viability vs DMSO control (72 h) (fraction); higher = more viable cells
How it was run: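 Sarcoma cell lines were plated in 384 wells to reach 80–90% confluence, treated after 24 h with 2.5 µl of serially diluted compound and held 72 h at 37 °C, 5% CO2. Relative viability was taken as percent growth from ATPLite readings, averaged over up to triplicate wells. The values were rescaled so that 1 marks full and 0 marks none.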

SMILES	relative viability (0.00017 µM)	relative viability (0.00051 µM)	relative viability (0.00152 µM)	relative viability (0.00457 µM)	relative viability (0.01372 µM)	relative viability (0.04115 µM)	relative viability (0.1235 µM)	relative viability (0.3704 µM)	relative viability (1.111 µM)	relative viability (3.333 µM)	relative viability (10 µM)
CCN1CCN(Cc2ccc(Nc3ncc(F)c(-c4cc(F)c5nc(C)n(C(C)C)c5c4)n3)nc2)CC1 [Abemaciclib]	1.04 ± 0.032	1.02 ± 0.029	1.02 ± 0.018	1.03 ± 0.017	1.033 ± 0.0059	1.033 ± 0.01	1.04 ± 0.014	1.055 ± 0.0084	1.01 ± 0.048	0.753 ± 0.036	0.6015 ± 0.0059
COc1c(OCCCN2CCOCC2)ccc2c1N=C(NC(=O)c1cnc(N)nc1)N1CCN=C21 [Copanlisib]	1.1 ± 0.042	1.1 ± 0.029	1.11 ± 0.015	1.088 ± 0.0075	1.075 ± 0.01	1.04 ± 0.029	1.003 ± 0.01	0.907 ± 0.021	0.523 ± 0.014	0.198 ± 0.0088	0.146 ± 0.011
Cc1nc(-c2cn3c(n2)-c2ccc(-c4cnn(C(C)(C)C(N)=O)c4)cc2OCC3)n(C(C)C)n1 [Taselisib]	1.04 ± 0.023	1.039 ± 0.003	1.03 ± 0.03	1.02 ± 0.018	1.042 ± 0.0077	1.01 ± 0.023	1.02 ± 0.02	1.03 ± 0.022	0.99 ± 0.035	0.948 ± 0.011	0.688 ± 0.0095
O=C(Cc1ccc(-c2ccc(OCCN3CCOCC3)cc2)cn1)NCc1ccccc1 [KX2-391]	1.106 ± 0.0028	1.11 ± 0.033	1.11 ± 0.031	1.11 ± 0.036	1.09 ± 0.03	1.039 ± 0.01	0.586 ± 0.013	0.456 ± 0.026	0.378 ± 0.0089	0.376 ± 0.0087	0.364 ± 0.028
C[C@@H]1COCCN1c1cc(-c2ccnn2C)c2ccnc(-c3ccn[nH]3)c2n1	1.07 ± 0.036	1.07 ± 0.012	1.07 ± 0.025	1.06 ± 0.029	1.06 ± 0.02	1.09 ± 0.026	1 ± 0.037	0.898 ± 0.025	0.538 ± 0.042	0.377 ± 0.0063	0.281 ± 0.026
Cc1cnc(Nc2ccc(OCCN3CCCC3)cc2)nc1Nc1cccc(S(=O)(=O)NC(C)(C)C)c1 [Fedratinib]	1.09 ± 0.023	1.08 ± 0.049	1.08 ± 0.05	1.09 ± 0.016	1.07 ± 0.022	1.06 ± 0.018	1.02 ± 0.029	1.01 ± 0.039	0.905 ± 0.046	0.511 ± 0.017	0.216 ± 0.0037
CC(C)N1CCN(Cc2cnc(-c3cc(-c4cccc5[nH]ccc45)cc4[nH]ncc34)o2)CC1 [Nemiralisib]	1.01 ± 0.024	1.02 ± 0.024	1.02 ± 0.029	1.01 ± 0.03	1.01 ± 0.026	1.02 ± 0.013	1.02 ± 0.021	1.03 ± 0.018	1.04 ± 0.038	1.03 ± 0.038	1.01 ± 0.034
Cc1ccc(NC(=O)c2ccc(CN3CCN(C)CC3)cc2)cc1Nc1nc(-c2cccnc2)cs1 [Masitinib]	1.05 ± 0.026	1.05 ± 0.035	1.089 ± 0.0014	1.083 ± 0.01	1.06 ± 0.028	1.09 ± 0.025	1.04 ± 0.052	1.01 ± 0.024	0.857 ± 0.018	0.612 ± 0.051	0.185 ± 0.0074
CCc1cc2c(cc1N1CCC(N3CCOCC3)CC1)C(C)(C)c1[nH]c3cc(C#N)ccc3c1C2=O [Alectinib]	1.07 ± 0.032	1.09 ± 0.031	1.082 ± 0.0076	1.08 ± 0.011	1.08 ± 0.013	1.089 ± 0.0044	1.09 ± 0.021	1.074 ± 0.0034	1.06 ± 0.026	1.05 ± 0.01	1.04 ± 0.044
COc1cc2nccc(Oc3ccc(NC(=O)Nc4cc(C)on4)c(Cl)c3)c2cc1OC [Tivozanib]	1.08 ± 0.013	1.06 ± 0.016	1.06 ± 0.027	1.08 ± 0.021	1.074 ± 0.005	1.06 ± 0.034	1.09 ± 0.018	1.05 ± 0.031	1.06 ± 0.023	1.03 ± 0.027	0.719 ± 0.015

— the supplement of paper PMC10883282
